According to US11590236B2, “Compositions and methods for altering macrophage phenotype” (priority 2019, dated 2023):

System: macrophages differentiated from human peripheral blood monocytes
Experiment: Cell death / viability of macrophages after drug exposure
Type: cell-based
Settings: all concentrations tested
Description: As with Cu(II)-tilmanocept, MT1001.8 was evaluated using macrophages differentiated from human peripheral blood monocytes cultured in supplemented RPMI-1640 medium to which GM-CSF was added. The resulting macrophages were then exposed for 23 hours to MT1001.8 at different concentrations ranging from 0 (controls) to 6.68 μM. Free doxorubicin and the mannosylated dextran construct without the doxorubicin payload were also evaluated as controls. After the 23-hour exposure to the drug construct, the drug containing media were removed and replaced with fresh supplemented RPMI-1640 with GM-CSF and incubated for an additional 72 hours. This final 72-hour incubation in fresh medium was to permit the macrophages to recover from the drug treatment and to manifest any phenotype changes that might have been induced by exposure to the drug construct. All experiments were replicated 5-8 times with peripheral blood monocytes obtained from 5 separate donors. After the last 72-hour incubation, the media were collected and analyzed for their concentrations of various cytokines.

Structure (SMILES): COc1cccc2c1C(=O)c1c(O)c3c(c(O)c1C2=O)C[C@@](O)(C(=O)CO)C[C@@H]3O[C@H]1C[C@H](N)[C@H](O)[C@H](C)O1 [free doxorubicin, doxorubicin]
- cell death: high levels of cell death
